In PubChem BioAssay AID1963869 (Molecular Pharmacology Branch, DTP, NCI, 2024):

System: KRAS patient-derived spheroids with HUVEC/MSC, viability
Assay: Anticancer human tumor 323965-272-R-J2-PDC patient-derived pancreatic carcinoma cell line growth inhibition [KRAS2]
Conditions: for IC50: curve of first compound; for viability, T/C: stronger effect = lower value
In short: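 KRAS-mutant tumor cells were grown as spheroids with HUVEC endothelial cells and human MSCs as stroma. Targeted agents were tested alone and with KRAS pathway inhibitors. Doses started at or near clinical Cmax, or 10 microM, descending half-log.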

[1] = second compound 0.0316 µM, first compound 0.0316 µM
[2] = second compound 0.0316 µM, first compound 0.1 µM
[3] = second compound 0.0316 µM, first compound 0.316 µM
[4] = second compound 0.0316 µM, first compound 1 µM
[5] = second compound 0.0316 µM, first compound 3.16 µM
[6] = second compound 0.1 µM, first compound 0.0316 µM
[7] = second compound 0.1 µM, first compound 0.1 µM
[8] = second compound 0.1 µM, first compound 0.316 µM
[9] = second compound 0.1 µM, first compound 1 µM
[10] = second compound 0.1 µM, first compound 3.16 µM
[11] = second compound 0.316 µM, first compound 0.0316 µM
[12] = second compound 0.316 µM, first compound 0.1 µM
[13] = second compound 0.316 µM, first compound 0.316 µM
[14] = second compound 0.316 µM, first compound 1 µM
[15] = second compound 0.316 µM, first compound 3.16 µM
[16] = second compound 1 µM, first compound 0.0316 µM
[17] = second compound 1 µM, first compound 0.1 µM
[18] = second compound 1 µM, first compound 0.316 µM
[19] = second compound 1 µM, first compound 1 µM
[20] = second compound 1 µM, first compound 3.16 µM
[21] = second compound 3.16 µM, first compound 0.0316 µM
[22] = second compound 3.16 µM, first compound 0.1 µM
[23] = second compound 3.16 µM, first compound 0.316 µM
[24] = second compound 3.16 µM, first compound 1 µM
[25] = second compound 3.16 µM, first compound 3.16 µM
[26] = second compound 0.0316 µM, first compound 10 µM
[27] = second compound 0.1 µM, first compound 10 µM
[28] = second compound 0.316 µM, first compound 10 µM
[29] = second compound 1 µM, first compound 10 µM
[30] = second compound 3.16 µM, first compound 10 µM
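Note: spheroids exposed to agents for 7 days.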
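Throughout, for viability, T/C: 100% = DMSO vehicle control viability.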

| Compound | IC50 (second compound 0.0316 µM) [nM] | IC50 (second compound 0.1 µM) [nM] | IC50 (second compound 0.316 µM) [nM] | IC50 (second compound 1 µM) [nM] | IC50 (second compound 3.16 µM) [nM] | viability, T/C [1] [%] | viability, T/C [2] [%] | viability, T/C [3] [%] | viability, T/C [4] [%] | viability, T/C [5] [%] | viability, T/C [6] [%] | viability, T/C [7] [%] | viability, T/C [8] [%] | viability, T/C [9] [%] | viability, T/C [10] [%] | viability, T/C [11] [%] | viability, T/C [12] [%] | viability, T/C [13] [%] | viability, T/C [14] [%] | viability, T/C [15] [%] | other results |
| --- | --- | --- | --- | --- | --- | --- | --- | --- | --- | --- | --- | --- | --- | --- | --- | --- | --- | --- | --- | --- | --- |
| CC1COCCN1c1cc(-c2ccnn2C)c2ccnc(-c3ccn[nH]3)c2n1 (stereo not given) + C=CC(=O)N1CCN(c2nc(OCC3CCCN3C)nc3c2CCN(c2cccc4cccc(C)c24)C3)CC1CC#N | < 10 | 12 | < 10 | < 10 | < 10 | 26.8 | 18.7 | 16.4 | 13.9 | 12.6 | 27.4 | 15.2 | 14.8 | 12.9 | 12.1 | 21.7 | 14 | 12.2 | 11.2 | 10.6 | viability, T/C (second compound 0.0316 µM, first compound 0.01 µM): 49.2%; viability, T/C (second compound 0.1 µM, first compound 0.01 µM): 54.5%; viability, T/C (second compound 0.316 µM, first compound 0.01 µM): 41.4%; viability, T/C (second compound 1 µM, first compound 0.01 µM): 33%; viability, T/C [16]: 18.2%; viability, T/C [17]: 10.8%; viability, T/C [18]: 11.1%; viability, T/C [19]: 12.2%; viability, T/C [20]: 11.8%; viability, T/C (second compound 3.16 µM, first compound 0.01 µM): 5.59%; viability, T/C [21]: 4.03%; viability, T/C [22]: 3.06%; viability, T/C [23]: 1.93%; viability, T/C [24]: 1.48%; viability, T/C [25]: 2.61% |
| CC1OCC2(CCN(c3cnc(Sc4ccnc(N)c4Cl)c(N)n3)CC2)C1N (stereo not given) + C=CC(=O)N1CCN(c2nc(OCC3CCCN3C)nc3c2CCN(c2cccc4cccc(C)c24)C3)CC1CC#N | 36.9 | < 31.6 | < 31.6 | < 31.6 | < 31.6 | 51.4 | 39.2 | 24.4 | 19.3 | 12.3 | 38.4 | 31.9 | 21.5 | 15.1 | 10.7 | 41 | 30.5 | 18.4 | 17 | 10.8 | viability, T/C [26]: 9.85%; viability, T/C [27]: 10.8%; viability, T/C [28]: 9.7%; viability, T/C [16]: 35.2%; viability, T/C [17]: 28.9%; viability, T/C [18]: 15.7%; viability, T/C [19]: 13.5%; viability, T/C [20]: 11.6%; viability, T/C [29]: 10%; viability, T/C [21]: 1.93%; viability, T/C [22]: 1.12%; viability, T/C [23]: 0.53%; viability, T/C [24]: 0.65%; viability, T/C [25]: 1.07%; viability, T/C [30]: 1.33% |
| CCNC(=O)CC1N=C(c2ccc(Cl)cc2)c2cc(OC)ccc2-n2c(C)nnc21 (stereo not given) + C=CC(=O)N1CCN(c2nc(OCC3CCCN3C)nc3c2CCN(c2cccc4cccc(C)c24)C3)CC1CC#N | 210 | 101 | 240 | 111 | < 31.6 | 75.3 | 59.5 | 46.3 | 30.4 | 26.4 | 63.1 | 51.1 | 35.6 | 31.9 | 26.3 | 89.5 | 91.3 | 37.3 | 29.7 | 24.7 | viability, T/C [26]: 27.2%; viability, T/C [27]: 24.2%; viability, T/C [28]: 24.1%; viability, T/C [16]: 60.4%; viability, T/C [17]: 50.6%; viability, T/C [18]: 38.5%; viability, T/C [19]: 27%; viability, T/C [20]: 22.6%; viability, T/C [29]: 22.5%; viability, T/C [21]: 10.5%; viability, T/C [22]: 6.25%; viability, T/C [23]: 3.72%; viability, T/C [24]: 0.16%; viability, T/C [25]: 1.28%; viability, T/C [30]: 0.88% |
